# Assay results as given in patent EP4810052A2, “HCRHR2 SELECTIVE POLYPEPTIDES” (Gubra A/S, priority 2023, dated 2026).
# Read-outs that look alike come from different tables or passages of the source. Starred links: 1 amine or outer side, 2 acyl side, 3 side chain; linkers in the order of their positions; H or OH if unused. Non-standard residues stand in square brackets, D forms with d. Residues, ends and D or L forms follow the SMILES beside them. Groups on a side chain read outwards from the residue. *: point of attachment. C20 diacid = O=C(O)CCCCCCCCCCCCCCCCCCC(=O)*; Pro(cis-4-F) = O=C(O)[C@@H]1C[C@H](F)CN1; Pro(4S-NH2) = N[C@@H]1CN[C@H](C(=O)O)C1; γGlu = O=C(O)[C@H](CCC(=O)[*:2])N[*:1]; Nle = CCCC[C@H](N)C(=O)O; AEEA = NCCOCCOCC(=O)O
# Tests used:
# hCRHR2 = molecular target: T1, hCRHR2 (Homo sapiens, UniProt Q13324); test: HTRF cAMP assay, determination of hCRHR2 potency (peptide libraries 5 conc., purified peptides 11 conc.); format: cell-based
# T1 sequence (Q13324 1-411): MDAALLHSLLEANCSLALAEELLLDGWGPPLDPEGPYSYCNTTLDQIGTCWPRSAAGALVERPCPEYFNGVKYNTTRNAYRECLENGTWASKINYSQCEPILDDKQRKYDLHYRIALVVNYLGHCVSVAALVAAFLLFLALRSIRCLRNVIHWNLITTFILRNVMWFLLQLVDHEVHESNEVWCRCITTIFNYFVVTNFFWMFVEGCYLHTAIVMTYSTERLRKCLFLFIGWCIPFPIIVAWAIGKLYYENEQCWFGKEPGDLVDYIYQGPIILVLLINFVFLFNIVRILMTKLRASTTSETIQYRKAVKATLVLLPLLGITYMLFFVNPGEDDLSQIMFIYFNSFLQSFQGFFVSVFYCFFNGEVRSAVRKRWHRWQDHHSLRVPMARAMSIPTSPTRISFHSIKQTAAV
# How it was run: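 Potency was read as cAMP accumulation in a stable CHO-K1 line expressing human CRHR2, used in suspension right after thawing. Detection relied on energy transfer from antibody-bound cryptate to d2-cAMP.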
# hCRHR1 = molecular target: T2, hCRHR1 (Homo sapiens, UniProt P34998); test: HTRF cAMP assay, determination of hCRHR1 potency (peptide libraries 5 conc., purified peptides 11 conc.); format: cell-based
# T2 sequence (P34998 24-415): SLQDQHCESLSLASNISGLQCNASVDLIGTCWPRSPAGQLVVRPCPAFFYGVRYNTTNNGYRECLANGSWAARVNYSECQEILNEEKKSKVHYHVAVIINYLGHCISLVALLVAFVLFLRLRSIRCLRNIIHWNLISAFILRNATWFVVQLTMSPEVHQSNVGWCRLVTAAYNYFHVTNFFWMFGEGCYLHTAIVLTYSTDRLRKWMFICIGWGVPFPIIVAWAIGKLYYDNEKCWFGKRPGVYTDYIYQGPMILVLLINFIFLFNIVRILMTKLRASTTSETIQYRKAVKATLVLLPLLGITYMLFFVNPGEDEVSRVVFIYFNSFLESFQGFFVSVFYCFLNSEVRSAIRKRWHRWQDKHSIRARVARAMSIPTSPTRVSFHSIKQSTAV
# How it was run: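 CHO-K1 cells stably expressing human CRHR1, thawed from frozen stocks just before use, were stimulated in suspension with agonist peptides. cAMP was measured by HTRF competitive immunoassay (cryptate anti-cAMP antibody vs d2-cAMP).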
# [1] = library peptides, matched molecular pairs L vs Nle in position X^38, read-out: Potency hCRHR2 pEC50 (converted)
# [2] = library peptides, matched molecular pairs L vs Nle in position X^38, read-out: Potency hCRHR1 pEC50 (converted)
# [3] = Table 3, matched molecular pairs X^38 L vs Nle, peptide library of Example 4, read-out: hCRHR2 pEC50 (converted)
# [4] = Table 3, matched molecular pairs X^38 L vs Nle, peptide library of Example 4, read-out: hCRHR1 pEC50 (converted)
Structure (SMILES),EC50 (hCRHR2; [1]) [nM],EC50 (hCRHR1; [2]) [nM],EC50 (hCRHR2; [3]) [nM],EC50 (hCRHR1; [4]) [nM]
CCCC[C@H](NC(=O)[C@@H](NC(=O)[C@H](CCC(=O)O)NC(=O)[C@H](C)NC(=O)[C@H](CC(N)=O)NC(=O)[C@@H](NC(=O)[C@H](CCCCNC(=O)COCCOCCNC(=O)COCCOCCNC(=O)CC[C@H](NC(=O)CC[C@H](NC(=O)CCCCCCCCCCCCCCCCCCC(=O)O)C(=O)O)C(=O)O)NC(=O)[C@H](C)NC(=O)[C@H](CCC(N)=O)NC(=O)[C@H](CCC(=O)O)NC(=O)[C@H](CCCNC(=N)N)NC(=O)[C@H](CC(C)C)NC(=O)[C@H](C)NC(=O)[C@H](CCCNC(=N)N)NC(=O)[C@H](C)NC(=O)[C@H](CCCNC(=N)N)NC(=O)[C@H](C)NC(=O)[C@H](CCC(N)=O)NC(=O)[C@H](CCC(=O)O)NC(=O)[C@H](CC(C)C)NC(=O)[C@H](CC(C)C)NC(=O)[C@@H](NC(=O)[C@H](CCC(N)=O)NC(=O)[C@H](CC(C)C)NC(=O)[C@H](CC(C)C)NC(=O)CNC(=O)[C@@H](NC(=O)[C@@H]1CCCN1C(=O)[C@@H](NC(=O)[C@H](CC(=O)O)NC(=O)[C@H](CC(C)C)NC(=O)[C@H](CO)NC(=O)[C@H](CC(C)C)NC(=O)[C@@H](NC(=O)[C@@H](N)[C@@H](C)CC)C(C)C)C(C)C)[C@@H](C)CC)[C@@H](C)CC)[C@@H](C)O)[C@@H](C)CC)C(=O)N[C@@H](C)C(=O)N[C@@H](CCC(=O)O)C(=O)N[C@H](C(N)=O)C(C)C [SEQ ID NO: 40] (H-IVLSLDVPIGLLQILLEQARARALREQAK([AEEA-AEEA-γGlu-γGlu-C20 diacid])TNAEI[Nle]AEV-NH2),,,0.398,25.1
CCCC[C@H](NC(=O)[C@@H](NC(=O)[C@H](CCC(=O)O)NC(=O)[C@H](C)NC(=O)[C@H](CC(N)=O)NC(=O)[C@@H](NC(=O)[C@H](CCCCNC(=O)COCCOCCNC(=O)COCCOCCNC(=O)CC[C@H](NC(=O)CC[C@H](NC(=O)CCCCCCCCCCCCCCCCCCC(=O)O)C(=O)O)C(=O)O)NC(=O)[C@H](C)NC(=O)[C@H](CCC(N)=O)NC(=O)[C@H](CCC(=O)O)NC(=O)[C@H](CCCNC(=N)N)NC(=O)[C@H](C)NC(=O)[C@H](C)NC(=O)[C@H](CCCNC(=N)N)NC(=O)[C@H](C)NC(=O)[C@H](CCCNC(=N)N)NC(=O)[C@H](C)NC(=O)[C@H](CCC(N)=O)NC(=O)[C@@H](NC(=O)[C@H](CC(C)C)NC(=O)[C@H](CC(C)C)NC(=O)[C@@H](NC(=O)[C@H](CCC(N)=O)NC(=O)[C@H](CC(C)C)NC(=O)[C@H](CC(C)C)NC(=O)CNC(=O)[C@@H](NC(=O)[C@@H]1C[C@H](F)CN1C(=O)[C@@H](NC(=O)[C@H](CC(=O)O)NC(=O)[C@H](CC(C)C)NC(=O)[C@H](CO)NC(=O)[C@H](CC(C)C)NC(=O)[C@@H](NC(=O)[C@@H](N)[C@@H](C)CC)C(C)C)C(C)C)[C@@H](C)CC)[C@@H](C)CC)[C@@H](C)O)[C@@H](C)O)[C@@H](C)CC)C(=O)N[C@@H](C)C(=O)N[C@@H](CCC(=O)O)C(=O)N[C@H](C(N)=O)C(C)C [compound 81] (H-IVLSLDV[Pro(cis-4-F)]IGLLQILLTQARARAAREQAK([AEEA-AEEA-γGlu-γGlu-C20 diacid])TNAEI[Nle]AEV-NH2),0.2,398000,,
CCCC[C@H](NC(=O)[C@@H](NC(=O)[C@H](CCC(=O)O)NC(=O)[C@H](C)NC(=O)[C@H](CC(N)=O)NC(=O)[C@@H](NC(=O)[C@H](CCCCNC(=O)COCCOCCNC(=O)COCCOCCNC(=O)CC[C@H](NC(=O)CC[C@H](NC(=O)CCCCCCCCCCCCCCCCCCC(=O)O)C(=O)O)C(=O)O)NC(=O)[C@H](C)NC(=O)[C@H](CCC(N)=O)NC(=O)[C@H](CCC(=O)O)NC(=O)[C@H](CCCNC(=N)N)NC(=O)[C@H](C)NC(=O)[C@H](C)NC(=O)[C@H](CCC(=O)O)NC(=O)[C@H](C)NC(=O)[C@H](CCCNC(=N)N)NC(=O)[C@H](C)NC(=O)[C@H](CCC(N)=O)NC(=O)[C@H](CCC(=O)O)NC(=O)[C@H](CC(C)C)NC(=O)[C@H](CC(C)C)NC(=O)[C@@H](NC(=O)[C@H](CCC(N)=O)NC(=O)[C@H](CC(C)C)NC(=O)[C@H](CC(C)C)NC(=O)CNC(=O)[C@@H](NC(=O)[C@@H]1CCCN1C(=O)[C@@H](NC(=O)[C@H](CC(=O)O)NC(=O)[C@H](CC(C)C)NC(=O)[C@H](CO)NC(=O)[C@H](CC(C)C)NC(=O)[C@@H](NC(=O)[C@@H](N)[C@@H](C)CC)C(C)C)C(C)C)[C@@H](C)CC)[C@@H](C)CC)[C@@H](C)O)[C@@H](C)CC)C(=O)N[C@@H](C)C(=O)N[C@@H](CCC(=O)O)C(=O)N[C@H](C(N)=O)C(C)C [SEQ ID NO: 26] (H-IVLSLDVPIGLLQILLEQARAEAAREQAK([AEEA-AEEA-γGlu-γGlu-C20 diacid])TNAEI[Nle]AEV-NH2),,,0.316,251

# Continued, values first:
EC50 (hCRHR2; [1]) [nM],EC50 (hCRHR1; [2]) [nM],EC50 (hCRHR2; [3]) [nM],EC50 (hCRHR1; [4]) [nM],Structure (SMILES)
1.58,1.58,,,CC[C@H](C)[C@H](N)C(=O)N[C@H](C(=O)N[C@@H](CC(C)C)C(=O)N[C@@H](CO)C(=O)N[C@@H](CC(C)C)C(=O)N[C@@H](CC(=O)O)C(=O)N[C@H](C(=O)N1C[C@@H](N)C[C@H]1C(=O)N[C@H](C(=O)NCC(=O)N[C@@H](CC(C)C)C(=O)N[C@@H](CC(C)C)C(=O)N[C@@H](CCC(N)=O)C(=O)N[C@H](C(=O)N[C@@H](CC(C)C)C(=O)N[C@@H](CC(C)C)C(=O)N[C@@H](CCC(=O)O)C(=O)N[C@@H](CCC(N)=O)C(=O)N[C@@H](C)C(=O)N[C@@H](CCCNC(=N)N)C(=O)N[C@@H](C)C(=O)N[C@@H](CCCNC(=N)N)C(=O)N[C@H](C(=O)N[C@@H](C)C(=O)N[C@@H](CCCNC(=N)N)C(=O)N[C@@H](CCC(=O)O)C(=O)N[C@@H](CCC(N)=O)C(=O)N[C@@H](C)C(=O)N[C@@H](CCCCNC(=O)COCCOCCNC(=O)COCCOCCNC(=O)CC[C@H](NC(=O)CC[C@H](NC(=O)CCCCCCCCCCCCCCCCCCC(=O)O)C(=O)O)C(=O)O)C(=O)N[C@H](C(=O)N[C@@H](CC(N)=O)C(=O)N[C@@H](C)C(=O)N[C@@H](CCC(=O)O)C(=O)N[C@H](C(=O)N[C@@H](CC(C)C)C(=O)N[C@@H](C)C(=O)N[C@@H](CCC(=O)O)C(=O)N[C@H](C(N)=O)C(C)C)[C@@H](C)CC)[C@@H](C)O)C(C)C)[C@@H](C)CC)[C@@H](C)CC)C(C)C)C(C)C [compound 76] (H-IVLSLDV[Pro(4S-NH2)]IGLLQILLEQARARVAREQAK([AEEA-AEEA-γGlu-γGlu-C20 diacid])TNAEILAEV-NH2)
,,0.794,3980,CC[C@H](C)[C@H](N)C(=O)N[C@H](C(=O)N[C@@H](CC(C)C)C(=O)N[C@@H](CO)C(=O)N[C@@H](CC(C)C)C(=O)N[C@@H](CC(=O)O)C(=O)N[C@H](C(=O)N1CCC[C@H]1C(=O)N[C@H](C(=O)NCC(=O)N[C@@H](CC(C)C)C(=O)N[C@@H](CC(C)C)C(=O)N[C@@H](CCC(N)=O)C(=O)N[C@H](C(=O)N[C@@H](CC(C)C)C(=O)N[C@@H](CC(C)C)C(=O)N[C@@H](CCC(=O)O)C(=O)N[C@@H](CCC(N)=O)C(=O)N[C@@H](C)C(=O)N[C@@H](CCCNC(=N)N)C(=O)N[C@@H](C)C(=O)N[C@@H](CCC(N)=O)C(=O)N[C@@H](C)C(=O)N[C@@H](CCC(N)=O)C(=O)N[C@@H](CCCNC(=N)N)C(=O)N[C@@H](CCC(=O)O)C(=O)N[C@@H](CCC(N)=O)C(=O)N[C@@H](C)C(=O)N[C@@H](CCCCNC(=O)COCCOCCNC(=O)COCCOCCNC(=O)CC[C@H](NC(=O)CC[C@H](NC(=O)CCCCCCCCCCCCCCCCCCC(=O)O)C(=O)O)C(=O)O)C(=O)N[C@H](C(=O)N[C@@H](CC(N)=O)C(=O)N[C@@H](C)C(=O)N[C@@H](CCC(=O)O)C(=O)N[C@H](C(=O)N[C@@H](CC(C)C)C(=O)N[C@@H](C)C(=O)N[C@@H](CCC(=O)O)C(=O)N[C@H](C(N)=O)C(C)C)[C@@H](C)CC)[C@@H](C)O)[C@@H](C)CC)[C@@H](C)CC)C(C)C)C(C)C [SEQ ID NO: 31] (H-IVLSLDVPIGLLQILLEQARAQAQREQAK([AEEA-AEEA-γGlu-γGlu-C20 diacid])TNAEILAEV-NH2)
